Tested on: wild-type rat neonatal CMs
Assay: Neonatal CM cell culture model: proliferation and apoptosis (planned)
Assay type: cell-based
Settings: low concentrations 0.1-3 μM, 24 hours; expected
Text: The cells will then be assessed for cell proliferation by direct cell counting and [3H]-thymidine incorporation as well as by immunostaining for Ki67, BrdU and pH3. Apoptosis will also be evaluated, by TUNEL labeling and by staining of caspase-3. All results will be confirmed using a minimum of three independent determinations, and statistical evaluation will be performed using ANOVA or a Student's t-test, as appropriate.

For `c1cc(SSc2ccns2)sn1` [NU9056], the “CM proliferation (cell counting, [3H]-thymidine, Ki67, BrdU, pH3)” value was “promote CM proliferation”.
